System: E. coli MG1655
Test: LC sensor relative permittivity growth monitoring (AST), ampicillin sensitive strain
Format: cell-based
Details: 100 μg/mL ampicillin at the time of inoculation, cultured for 4 hours; observed within 30 mins; FIG. 12

CC1(C)S[C@@H]2[C@H](NC(=O)[C@H](N)c3ccccc3)C(=O)N2[C@H]1C(=O)O [ampicillin] was tested, and the “growth in presence of ampicillin (relative permittivity)” value was “inhibited”.

Source: patent US12071602B2, “Inductively coupled capacitor wireless sensor system for rapid antimicrobial susceptibility testing” (SYRACUSE UNIVERSITY, priority 2021, dated 2024)
